From PubChem BioAssay AID1259407 (Chemical Carcinogenesis Research Information System (CCRIS), 2018)
Activity calls are given as the source filed them. How the calls were made is not given here.

Tested on: CCRIS mutagenicity, Ames/micronucleus/aberration tests
Test: CCRIS mutagenicity studies
[1] = Test System: AMES SALMONELLA TYPHIMURIUM, Strain/Indicator: TA97, Metabolic Activation: NONE, Method: PREINCUBATION
[2] = Test System: AMES SALMONELLA TYPHIMURIUM, Strain/Indicator: TA98, Metabolic Activation: NONE, Method: PREINCUBATION
[3] = Test System: AMES SALMONELLA TYPHIMURIUM, Strain/Indicator: TA98, Metabolic Activation: NONE, Method: STANDARD PLATE
[4] = Test System: AMES SALMONELLA TYPHIMURIUM, Strain/Indicator: TA98, Metabolic Activation: RAT, LIVER, S-9, AROCLOR 1254, Method: STANDARD PLATE
[5] = Test System: AMES SALMONELLA TYPHIMURIUM, Strain/Indicator: TA100, Metabolic Activation: NONE, Method: PREINCUBATION
[6] = Test System: AMES SALMONELLA TYPHIMURIUM, Strain/Indicator: TA100, Metabolic Activation: NONE, Method: STANDARD PLATE
[7] = Test System: AMES SALMONELLA TYPHIMURIUM, Strain/Indicator: TA100, Metabolic Activation: RAT, LIVER, S-9, AROCLOR 1254, Method: STANDARD PLATE
[8] = Test System: AMES SALMONELLA TYPHIMURIUM, Strain/Indicator: TA1535, Metabolic Activation: NONE, Method: PREINCUBATION
[9] = Test System: AMES SALMONELLA TYPHIMURIUM, Strain/Indicator: TA1535, Metabolic Activation: NONE, Method: STANDARD PLATE
[10] = Test System: AMES SALMONELLA TYPHIMURIUM, Strain/Indicator: TA1535, Metabolic Activation: RAT, LIVER, S-9, AROCLOR 1254, Method: STANDARD PLATE
[11] = Test System: AMES SALMONELLA TYPHIMURIUM, Strain/Indicator: TA1537, Metabolic Activation: NONE, Method: STANDARD PLATE
[12] = Test System: AMES SALMONELLA TYPHIMURIUM, Strain/Indicator: TA1537, Metabolic Activation: RAT, LIVER, S-9, AROCLOR 1254, Method: STANDARD PLATE

Measured: mutagenic call

C1OCOCO1
inactive: Test System: AMES SALMONELLA TYPHIMURIUM, Strain/Indicator: TA97, Metabolic Activation: HAMSTER, LIVER, S-9, AROCLOR 1254 (10 OR 30%), Method: PREINCUBATION inactive; negative | [1] inactive; negative | Test System: AMES SALMONELLA TYPHIMURIUM, Strain/Indicator: TA97, Metabolic Activation: RAT, LIVER, S-9, AROCLOR 1254 (10 OR 30%), Method: PREINCUBATION inactive; negative | Test System: AMES SALMONELLA TYPHIMURIUM, Strain/Indicator: TA98, Metabolic Activation: HAMSTER, LIVER, S-9, AROCLOR 1254 (10 OR 30%), Method: PREINCUBATION inactive; negative | [2] inactive; negative | [3] inactive; negative | Test System: AMES SALMONELLA TYPHIMURIUM, Strain/Indicator: TA98, Metabolic Activation: RAT, LIVER, S-9, AROCLOR 1254 (10 OR 30%), Method: PREINCUBATION inactive; negative | [4] inactive; negative | Test System: AMES SALMONELLA TYPHIMURIUM, Strain/Indicator: TA100, Metabolic Activation: HAMSTER, LIVER, S-9, AROCLOR 1254 (10 OR 30%), Method: PREINCUBATION inactive; negative | [5] inactive; negative | [6] inactive; negative | Test System: AMES SALMONELLA TYPHIMURIUM, Strain/Indicator: TA100, Metabolic Activation: RAT, LIVER, S-9, AROCLOR 1254 (10 OR 30%), Method: PREINCUBATION inactive; negative | [7] inactive; negative | Test System: AMES SALMONELLA TYPHIMURIUM, Strain/Indicator: TA1535, Metabolic Activation: HAMSTER, LIVER, S-9, AROCLOR 1254 (10 OR 30%), Method: PREINCUBATION inactive; negative | [8] inactive; negative | [9] inactive; negative | Test System: AMES SALMONELLA TYPHIMURIUM, Strain/Indicator: TA1535, Metabolic Activation: RAT, LIVER, S-9, AROCLOR 1254 (10 OR 30%), Method: PREINCUBATION inactive; negative | [10] inactive; negative | [11] inactive; negative | [12] inactive; negative | Test System: AMES SALMONELLA TYPHIMURIUM, Strain/Indicator: TA1538, Metabolic Activation: NONE, Method: STANDARD PLATE inactive; negative | Test System: AMES SALMONELLA TYPHIMURIUM, Strain/Indicator: TA1538, Metabolic Activation: RAT, LIVER, S-9, AROCLOR 1254, Method: STANDARD PLATE inactive; negative

Nc1cccc(O)c1
active: Test System: AMES SALMONELLA TYPHIMURIUM, Strain/Indicator: TA98, Metabolic Activation: HAMSTER, LIVER, S-9, AROCLOR 1254 (5 OR 10%), Method: PREINCUBATION active; positive
inactive: Test System: AMES SALMONELLA TYPHIMURIUM, Strain/Indicator: TA97, Metabolic Activation: HAMSTER, LIVER, S-9, AROCLOR 1254 (10%), Method: PREINCUBATION inactive; negative | [1] inactive; negative | Test System: AMES SALMONELLA TYPHIMURIUM, Strain/Indicator: TA97, Metabolic Activation: RAT, LIVER, S-9, AROCLOR 1254 (10%), Method: PREINCUBATION inactive; negative | Test System: AMES SALMONELLA TYPHIMURIUM, Strain/Indicator: TA98, Metabolic Activation: HAMSTER, LIVER, S-9, AROCLOR 1254 (30%), Method: PREINCUBATION inactive; negative | Test System: AMES SALMONELLA TYPHIMURIUM, Strain/Indicator: TA98, Metabolic Activation: NONE inactive; negative | [2] inactive; negative | Test System: AMES SALMONELLA TYPHIMURIUM, Strain/Indicator: TA98, Metabolic Activation: RAT, LIVER, S-9, AROCLOR 1254 (5, 10 OR 30%), Method: PREINCUBATION inactive; negative | Test System: AMES SALMONELLA TYPHIMURIUM, Strain/Indicator: TA98, Metabolic Activation: S-9 inactive; negative | Test System: AMES SALMONELLA TYPHIMURIUM, Strain/Indicator: TA100, Metabolic Activation: HAMSTER, LIVER, S-9, AROCLOR 1254 (10%), Method: PREINCUBATION inactive; negative | [5] inactive; negative | Test System: AMES SALMONELLA TYPHIMURIUM, Strain/Indicator: TA100, Metabolic Activation: RAT, LIVER, S-9, AROCLOR 1254 (10%), Method: PREINCUBATION inactive; negative | Test System: AMES SALMONELLA TYPHIMURIUM, Strain/Indicator: TA1535, Metabolic Activation: HAMSTER, LIVER, S-9, AROCLOR 1254 (10%), Method: PREINCUBATION inactive; negative | [8] inactive; negative | Test System: AMES SALMONELLA TYPHIMURIUM, Strain/Indicator: TA1535, Metabolic Activation: RAT, LIVER, S-9, AROCLOR 1254 (10%), Method: PREINCUBATION inactive; negative

Cc1ccc2cc3ccccc3cc2c1
active: Test System: AMES SALMONELLA TYPHIMURIUM, Strain/Indicator: TA97, Metabolic Activation: RAT, LIVER, S-9, PCB, Method: STANDARD PLATE active; positive
inactive: Test System: AMES SALMONELLA TYPHIMURIUM, Strain/Indicator: TA97, Metabolic Activation: NONE, Method: STANDARD PLATE inactive; negative | [3] inactive; negative | [4] inactive; negative | Test System: AMES SALMONELLA TYPHIMURIUM, Strain/Indicator: TA98, Metabolic Activation: RAT, LIVER, S-9, PCB, Method: STANDARD PLATE inactive; negative | [6] inactive; negative | [7] inactive; negative | Test System: AMES SALMONELLA TYPHIMURIUM, Strain/Indicator: TA100, Metabolic Activation: RAT, LIVER, S-9, PCB, Method: STANDARD PLATE inactive; negative

COc1cccc2c1C(=O)c1c(O)c3c(c(O)c1C2=O)CC(O)(C(C)=O)CC3O[C@H]1C[C@H](N2CCOCC2)[C@@H](O)C(C)O1 (some centres undefined)
inactive: Test System: CHINESE HAMSTER V-79, Strain/Indicator: V-79/8-AZAGUANINE, Metabolic Activation: RAT, HEPATOCYTES inactive; negative
active: Test System: CHINESE HAMSTER V-79, Strain/Indicator: V-79/8-AZAGUANINE, Metabolic Activation: NONE active; positive | Test System: UDS RAT HEPATOCYTES, Strain/Indicator: THY INCORP, Metabolic Activation: NONE, Method: AUTOMATIC COLONY COUNTER active; positive

Nc1cc(N)c(N=Nc2ccc(S(=O)(=O)O)cc2)cc1N=Nc1ccc(-c2ccc(N=Nc3ccc(C(=O)O)c(O)c3)cc2)cc1
active: Test System: AMES SALMONELLA TYPHIMURIUM, Strain/Indicator: TA98, Metabolic Activation: HAMSTER, LIVER, S-9, Method: PREINCUBATION (PRIVAL METHOD) active; positive

ClCc1cccc2c1-c1cccc3cccc-2c13
active: [3] active; positive | [6] active; positive

Cc1ccc(OS(=O)(=O)c2cccc3cccnc23)c([N+](=O)[O-])c1
active: [3] active; positive | [4] active; positive | [6] active; positive | [7] active; positive | [11] active; positive | [12] active; positive
inactive: [9] inactive; negative | [10] inactive; negative
